Legend:
[1] = tested on: rat immunoglobulins; assay: ELISA: antibodies of rat sera to Mycobacterial HSP 65 and its peptides; assay type: binding
[2] = tested on: rat immunoglobulins; assay: Dot-Blot of rat immunoglobulins with synthetic HSP peptides; assay type: binding
Method: Dot Blots assay: Antigens were dissolved in PBS and samples of 1 μg were adsorbed on Nitrocellulose paper. The paper was air-dried and incubated with BSA 1% in PBS for 20 min. to block non-specific binding. The samples were then washed in PBS-Tween 0.05% and incubated with rat sera diluted 1:100 in BSA-PBS, for 90 min. at room temp. Samples were washed and incubated with goat anti rat antibody conjugated to alkaline phosphatase diluted 1:1000 in BSA-PBS for 90 min. at RT. After re-washing the color reaction was developed by adding a mixture of BCIP-NBT (Sigma-Fast, Sigma) to the […] for 15 min. The reaction was stopped by the addition of tap water.
To define the epitopes recognized by the anti bacterial HSP antibodies, the inventors tested by Dot-Blot the interaction of immunoglobulins from naive young BN rats and post AA Lewis rats with 90 16-mer synthetic peptides of the Mycobacterial 65 KD HSP. Immunoglobulins from naive young Lewis rats served as control.
Immunoglobulins from naive Lewis and BN rats and post-AA Lewis rats were tested for binding to 38 synthetic 20-mer peptides of the mammalian HSP 60 by Dot-Blot. […] Quantitative analysis of this binding as well as the binding of immunoglobulins from four and nine month old Lewis rats confirmed the dot blot findings (Table 3).

[3] = all of the rats immunoglobulins tested

| Substance | Antibodies to Mycobacterial HSP 65 Peptides ([1]; strain BN-6w) | Antibodies to Mycobacterial HSP 65 Peptides ([1]; strain Lew-4m) | Antibodies to Mycobacterial HSP 65 Peptides ([1]; strain Lew-6w) | Antibodies to Mycobacterial HSP 65 Peptides ([1]; strain Lew-9m) | Antibodies to Mycobacterial HSP 65 Peptides ([1]; strain Lew-Post AA) | reaction with immunoglobulins in Dot-Blot ([2]; Lewis rats immunized with CFA) | reaction with immunoglobulins in Dot-Blot [2, 3] |
| --- | --- | --- | --- | --- | --- | --- | --- |
| 21: 16-mer synthetic peptide of Mycobacterial HSP 65, residues 121-136, SEQ ID #10 [Peptide 21] | − (<O. 15 = −) | − (<O. 15 = −) | − (<O. 15 = −) | − (<O. 15 = −) | + (0.16-0.45 = +) | reacted | – |
| 31: 16-mer synthetic peptide of Mycobacterial HSP 65, residues 181-196, SEQ ID #11 [Peptide 31] | + (0.16-0.45 = +) | − (<O. 15 = −) | − (<O. 15 = −) | ++ (0.46-0.75 = ++) | ++ (0.46-0.75 = ++) | – | – |
| 36: 16-mer synthetic peptide of Mycobacterial HSP 65, residues 211-226, SEQ ID #12 [Peptide 36] | ++ (0.46-0.75 = ++) | + (0.16-0.45 = +) | − (<O. 15 = −) | + (0.16-0.45 = +) | +++ (>0.75 = +++) | – | – |
| 40: 16-mer synthetic peptide of Mycobacterial HSP 65, residues 236-251, SEQ ID #13 [Peptide 40] | ++ (0.46-0.75 = ++) | + (0.16-0.45 = +) | + (0.16-0.45 = +) | ++ (0.46-0.75 = ++) | ++ (0.46-0.75 = ++) | – | reacted |
| 45: 16-mer synthetic peptide of Mycobacterial HSP 65, residues 265-280, SEQ ID #14 [Peptide 45] | + (0.16-0.45 = +) | + (0.16-0.45 = +) | − (<O. 15 = −) | + (0.16-0.45 = +) | ++ (0.46-0.75 = ++) | – | – |
| 59: 16-mer synthetic peptide of Mycobacterial HSP 65, residues 349-364, SEQ ID #15 [Peptide 59] | + (0.16-0.45 = +) | − (<O. 15 = −) | − (<O. 15 = −) | − (<O. 15 = −) | +++ (>0.75 = +++) | – | – |
| 63: 16-mer synthetic peptide of Mycobacterial HSP 65, residues 373-388, SEQ ID #16 [Peptide 63] | + (0.16-0.45 = +) | + (0.16-0.45 = +) | + (0.16-0.45 = +) | +++ (>0.75 = +++) | ++ (0.46-0.75 = ++) | – | reacted |
| 84: 16-mer synthetic peptide of Mycobacterial HSP 65, residues 499-514, SEQ ID #17 [Peptide 84] | − (<O. 15 = −) | − (<O. 15 = −) | − (<O. 15 = −) | − (<O. 15 = −) | + (0.16-0.45 = +) | reacted | – |
| HSP 65: Recombinant HSP 65 of Mycobacterium Tuberculosis | +++ (>0.75 = +++) | − (<O. 15 = −) | − (<O. 15 = −) | + (0.16-0.45 = +) | ++ (0.46-0.75 = ++) | – | – |
